From patent US10071965B2, “Pyridone FabI inhibitors and uses thereof” (priority 2015, dated 2018)
≈ marks a conversion by molar mass, not a printed value. Where two headings read alike, the source gives them in different places. Marks after values point to notes of the source that are not given here.

Legend:
YpFabV = YpFabV (Yersinia pestis, UniProt Q8Z9U1); assay: biochemical
bpFabI = bpFabI (Burkholderia pseudomallei, UniProt A0A0H3HP34); assay: biochemical
Bt38 = assay: microbe, parasite or virus in culture; format: cell-based; settings: Burkholderia pseudomallei, read-out: Bt38, % inhib.
bpFabV = bpFabV (Burkholderia pseudomallei, UniProt Q63TE9); format: biochemical; settings: read-out: Burkholderia pseudomallei IC50 (μM), bpFabV
F. tularensis LVS [1] = assay: microbe, parasite or virus in culture; format: cell-based; settings: Francisella tularensis; for inhibition at 5 µg/mL: read-out: Francisella tularensis LVS, % inhib.; for MIC: read-out: MIC (μm), F. tularensis LVS, Table 3
M. tuberculosis H37Rv = assay: MIC microbroth dilution, M. tuberculosis H37Rv; format: cell-based; settings: Mycobacterium tuberculosis
Yersinia pestis = assay: microbe, parasite or virus in culture; format: cell-based; settings: read-out: Yersinia pestis, % inhib.
[2] = target: M. tuberculosis enoyl-ACP reductase InhA (Mycobacterium tuberculosis (strain ATCC 25618 / H37Rv), UniProt P9WGR1); assay: InhA inhibition kinetics; format: biochemical
[3] = target: Francisella tularensis FabI (Francisella tularensis subsp. tularensis (strain SCHU S4 / Schu 4), UniProt Q5NGQ3); assay: biochemical
saFabI [4] = target: T1, saFabI (Staphylococcus aureus (strain MRSA252), UniProt Q6GI75); assay: saFabI inhibition kinetics; format: biochemical
B. pseudomallei Bp400 [5] = assay: microbe, parasite or virus in culture; format: cell-based; settings: Burkholderia pseudomallei
S. aureus RN4220 = assay: MIC microbroth dilution, S. aureus RN4220; format: cell-based, Staphylococcus aureus; settings: Staphylococcus aureus
ecFabI = ecFabI (Escherichia coli (strain K12), UniProt P0AEK4); assay: ecFabI inhibition kinetics; format: biochemical; settings: Ki^app (nM), [S]/KS = 0.19
E. coli MG1655 = assay: MIC microbroth dilution, E. coli MG1655 with intact AcrAB efflux pump; format: cell-based, Escherichia coli; settings: for MIC: Escherichia coli
E. coli MG1655 ΔacrAB = assay: microbe, parasite or virus in culture; format: cell-based, Escherichia coli; settings: for MIC: Escherichia coli
in vivo = settings: female, ICR, mouse, ip, 100 mg/kg
MRSA strain BAA1762 = assay: Neutropenic mouse thigh infection model; format: in vivo, Swiss Webster mice; settings: 100 mg/kg dose, MRSA BAA1762, neutropenic mouse
[6] = tested on: PT166-resistant S. aureus RN4220 mutants; assay: microbe, parasite or virus in culture; format: cell-based; settings: Staphylococcus aureus
P. mirabilis ATCC35659 = assay: MIC microbroth dilution, P. mirabilis ATCC35659; format: cell-based; settings: Proteus mirabilis
saFabI [7] = target: T1, saFabI; assay: Jump dilution assay with saFabI; format: biochemical; settings: preincubation with NADPH and saFabI
F. tularensis LVS [8] = settings: data according to Ref. 69; cited from earlier work
B. pseudomallei Bp400 [9] = settings: B. pseudomallei Bp400, data according to Ref. 69; cited from earlier work
[10] = H37RV, 4-pyridones table, read-out: Mycobacterium tuberculosis MIC (μg/mL) H37Rv
[11] = RN4220, S. aureus RN4220, Table 3, read-out: MIC (μm)
[12] = RN4220, S. aureus RN4220, read-out: MIC
[13] = M. tuberculosis H37Rv, Table 3, read-out: MIC (μm)
[14] = E. coli MG1655, Table 3, read-out: MIC (μm)

`CCCCCCc1cc(=O)c(Oc2ccc([N+](=O)[O-])cc2)cn1C` [PT156] gave an IC50 (YpFabV) of 180 nM, an IC50 (bpFabI) of 960 ± 100 nM and an inhibition at 40 µg/mL (Bt38) of 43%. It also gave an IC50 (bpFabV) of 0.56 ± 0.1 µM, an inhibition at 5 µg/mL (F. tularensis LVS [1]) of 88% and an MIC (M. tuberculosis H37Rv; [10]) of 50 µg/mL. It also gave an inhibition at 40 µg/mL (Yersinia pestis) of 29% and an IC50 [2] of 407 nM.
`CCCCCCc1cc(=O)c(Oc2ccc(N)cc2C)cn1C` [PT155] gave an IC50 (YpFabV) of over 50000 nM, an IC50 (bpFabI) of 140 nM and an inhibition at 20 µg/mL (Bt38) of 90%. For the same molecule, the IC50 (bpFabV) was 3 ± 0.6 µM, the IC50 [3] was 53 nM and the inhibition at 5 µg/mL (F. tularensis LVS [1]) was 91%. For the same molecule, the MIC (M. tuberculosis H37Rv; [10]) was 6.25 µg/mL, the inhibition at 40 µg/mL (Yersinia pestis) was 26% and the IC50 [2] was 107 nM.
`CCCCCCc1cc(=O)c(Oc2ccccc2C)cn1C` [PT166] showed a Ki (saFabI [4]; Ki (nM), saFabI) of 2.7 ± 0.6 nM, a Ki (saFabI [4]; Ki, saFabI) of 2.7 nM and a Ki (saFabI [4]; Ki^app (nM), saFabI, [S]/KS = 2) of 10.1 ± 2.1 nM. For the same molecule, the Ki (saFabI [4]; Staphylococcus aureus Ki (nM), 4-pyridones table) was 2.7 nM, the MIC (B. pseudomallei Bp400 [5]; BP400, read-out: Burkholderia pseudomallei MIC (μg/mL) Bp400) was 64 µg/mL and the MIC (B. pseudomallei Bp400 [5]; BP400, read-out: MIC (μm)) was 214 µM. For the same molecule, the MIC (S. aureus RN4220; RN4220, 4-pyridones table, read-out: Staphylococcus aureus MIC (μg/mL) RN4220) was 0.24 µg/mL, the MIC (S. aureus RN4220; [11]) was 0.8 µM and the MIC (S. aureus RN4220; [12]) was 0.8 µM. It also gave an MIC (S. aureus RN4220; RN4220, strain RN4220 (parent), Table 4, read-out: MIC μm) of 0.8 µM, an MIC (S. aureus RN4220; RN4220, text, read-out: MIC against Staphylococcus aureus strain RN4220) of 0.24 µg/mL and a Ki (ecFabI) of 8.5 ± 0.2 nM. For the same molecule, the IC50 [3] was 24 nM, the MIC (F. tularensis LVS [1]) was 0.4 µM (≈ 0.12 µg/mL) and the MIC (E. coli MG1655; MG1655, 4-pyridones table, in brackets, read-out: MIC for MG1655 with intact efflux pump) was over 128 µg/mL. For the same molecule, the MIC (E. coli MG1655; MG1655, Table 2 footnote e, read-out: MIC against E. coli MG1655 with the intact AcrAB efflux pump) was over 425 µM, the “Escherichia coli MIC (μg/mL) MG1655 ΔacrAB” value (E. coli MG1655 ΔacrAB; 4-pyridones table) was 2 µg/mL and the MIC (E. coli MG1655 ΔacrAB; MG1655) was 6.7 µM (≈ 2.01 µg/mL). For the same molecule, the MIC (E. coli MG1655 ΔacrAB; MG1655, read-out: MIC (μm)) was 6.7 µM (≈ 2.01 µg/mL), the “lower MIC against E. coli MG1655 lacking AcrAB” value (E. coli MG1655 ΔacrAB; relative to CG400549) was over 50 fold and the MIC (M. tuberculosis H37Rv; [10]) was 3.13 µg/mL. For the same molecule, the MIC (M. tuberculosis H37Rv; H37RV, M. tuberculosis, read-out: MIC, in vitro anti-mycobacterial activity) was 10.5 µM, the MIC (M. tuberculosis H37Rv; [13]) was 10.5 µM and the AUC(0-t) (in vivo) was 53000 ng·h/mL. For the same molecule, the Cmax (in vivo) was 45900 ng/mL, the Tmax (in vivo) was 0.25 h and the half-life (in vivo) was 2.7 h. For the same molecule, the “decrease of bacterial burden in the infected thigh” value (MRSA strain BAA1762) was 2.8 log cfu/g tissue, the IC50 [2] was 28.6 nM and the Ki [2] was 22 nM. For the same molecule, the MIC ([6]; read-out: MIC μm, strain 166R.1, FabI A95V) was 8.8 µM (≈ 2.63 µg/mL), the MIC ([6]; read-out: MIC μm, strain 166R.2, FabI A95V) was 8.8 µM (≈ 2.63 µg/mL) and the MIC ([6]; read-out: MIC μm, strain 166R.3, FabI A95V and F252L) was 8.8 µM (≈ 2.63 µg/mL). The MIC ([6]; read-out: MIC μm, strain 166R.4, FabI A95V and E71D) was 8.8 µM (≈ 2.63 µg/mL), the MIC ([6]; read-out: MIC μm, strain 166R.5, no change in fabI) was 17.6 µM (≈ 5.27 µg/mL) and the MIC (P. mirabilis ATCC35659; ATCC35659, read-out: MIC (μm)) was 214 µM (≈ 64 µg/mL).
With `Cc1c(N)cccc1Cn1ccc(OCCc2cccs2)cc1=O` [CG400549, reference compound] the “affinity improvement for saFabI” value (saFabI [4]; relative to PT173) was 1.5 fold, the MIC (B. pseudomallei Bp400 [5]; BP400, read-out: MIC (μm)) was 376 µM and the MIC (S. aureus RN4220; [11]) was 5.9 µM. The MIC (S. aureus RN4220; [12]) was 5.9 µM, the MIC (F. tularensis LVS [1]) was 5.9 µM (≈ 2.01 µg/mL) and the lower antibacterial activity (E. coli MG1655; E. coli versus S. aureus, Table 3) was over 64 fold. For the same molecule, the MIC (E. coli MG1655; [14]) was over 375 µM, the MIC (E. coli MG1655 ΔacrAB; MG1655) was over 375 µM and the MIC (E. coli MG1655 ΔacrAB; MG1655, read-out: MIC (μm)) was over 375 µM. The MIC (M. tuberculosis H37Rv; [13]) was over 300 µM, the “off kinetics in jump dilution curve” value (saFabI [7]) was “rapid off kinetics” and the Ki [2] was 582 nM. The MIC (P. mirabilis ATCC35659; P. mirabilis ATCC35659, read-out: MIC (μm)) was over 750 µM.
For `CCc1ccc(Oc2ccccc2)c(O)c1` [PT01, 5-ethyl-2-phenoxyphenol], the “MIC (μM)” value (F. tularensis LVS [8]) is given as 0.1^c μM, the MIC (S. aureus RN4220; [11]) is given as 2.3 µM and the MIC (S. aureus RN4220; [12]) is given as 2.3 µM. The MIC (E. coli MG1655; [14]) was 18.7 µM, the MIC (E. coli MG1655 ΔacrAB; MG1655) was 0.6 µM (≈ 0.129 µg/mL) and the MIC (E. coli MG1655 ΔacrAB; MG1655, read-out: MIC (μm)) was 0.6 µM (≈ 0.129 µg/mL). For the same molecule, the MIC (M. tuberculosis H37Rv; [13]) was 72.9 µM and the “MIC (μM)” value (B. pseudomallei Bp400 [9]) was 326.7^c μM.
